These results are taken from ChEMBL document CHEMBL3351662, “Synthesis, bioassay, and QSAR study of bronchodilatory active 4H-pyrano[3,2-c]pyridine-3-carbonitriles” (Eur J Med Chem, 2015).

SMILES strings stand for the structures.

A short description of the assay: Bronchodialatory activity in guinea pig trachea assessed as reduction of histamine-induced contracture. It is filed as functional, tissue-based, Cavia porcellus.
With `CCN1CC[C@@]2(OC)OC(N)=C(C#N)[C@@H](c3ccccc3)[C@@H]2C1`, the IC50 is 23.4 µM.

Consider `CO[C@@]12CCN(C)C[C@H]1[C@H](c1ccc(Cl)cc1)C(C#N)=C(N)O2`, for which the IC50 stood at 10.5 µM.

`CCN1CC[C@@]2(OC)OC(N)=C(C#N)[C@@H](c3ccc(Cl)cc3)[C@@H]2C1`: the IC50 was 14.9 µM.

Turning to `CO[C@@]12CCN(C)C[C@H]1[C@H](c1ccc(F)cc1)C(C#N)=C(N)O2`, the half-inhibitory concentration (IC50) turned out to be 19.4 µM.

On to `CO[C@@]12CCN(C)C[C@H]1[C@H](c1ccc(C)cc1)C(C#N)=C(N)O2`, for which the concentration for half-maximal inhibition (IC50) is 13.2 µM.

`COc1ccc([C@@H]2C(C#N)=C(N)O[C@]3(OC)CCN(C)C[C@@H]23)cc1`: the 50% inhibitory concentration (IC50) came out at 23.1 µM.

In the case of `CCN1CC[C@@]2(OC)OC(N)=C(C#N)[C@@H](c3ccc(OC)cc3)[C@@H]2C1`, the 50% inhibitory concentration (IC50) stood at 25.5 µM.

For the molecule `CO[C@@]12CCN(C)C[C@H]1[C@H](c1ccc(N3CCCCC3)cc1)C(C#N)=C(N)O2`, the IC50 was found to be 19 µM.

As to `CCN1CC[C@@]2(OC)OC(N)=C(C#N)[C@@H](c3ccc(N4CCCCC4)cc3)[C@@H]2C1`, the half-inhibitory concentration (IC50) is 13.8 µM.

Regarding `CO[C@@]12CCN(C)C[C@H]1[C@H](c1ccc(N3CCOCC3)cc1)C(C#N)=C(N)O2`, the half-maximal inhibitory concentration (IC50) came out at 20.2 µM.

`CCN1CC[C@@]2(OC)OC(N)=C(C#N)[C@@H](c3ccc(N4CCOCC4)cc3)[C@@H]2C1`: the IC50 stood at 28.7 µM.

`CO[C@@]12CCN(C)C[C@H]1[C@H](c1ccccc1)C(C#N)=C(N)O2`: the IC50 was found to be 19.8 µM.

`CCCN1CC[C@@]2(OC)OC(N)=C(C#N)[C@@H](c3ccccc3)[C@@H]2C1`: the IC50 was 20.7 µM.

For `CO[C@@]12CCN(Cc3ccccc3)C[C@H]1[C@H](c1ccccc1)C(C#N)=C(N)O2`, the IC50 came to 22.6 µM.

With `CO[C@@]12CCN(C)C[C@H]1[C@H](c1ccc3ccccc3c1)C(C#N)=C(N)O2`, the IC50 was determined as 24.2 µM.

For the molecule `CCN1CC[C@@]2(OC)OC(N)=C(C#N)[C@@H](c3ccc4ccccc4c3)[C@@H]2C1`, the IC50 was found to be 28.3 µM.

For `CCCN1CC[C@@]2(OC)OC(N)=C(C#N)[C@@H](c3ccc4ccccc4c3)[C@@H]2C1`, the half-maximal inhibitory concentration (IC50) stood at 37.1 µM.

`CO[C@@]12CCN(Cc3ccccc3)C[C@H]1[C@H](c1ccc3ccccc3c1)C(C#N)=C(N)O2`: the IC50 turned out to be 23.4 µM.

In the case of `CO[C@@]12CCN(C)C[C@H]1[C@H](c1ccc(Br)cc1)C(C#N)=C(N)O2`, the IC50 is 7.9 µM.

`CCN1CC[C@@]2(OC)OC(N)=C(C#N)[C@@H](c3ccc(Br)cc3)[C@@H]2C1`: the IC50 worked out at 13.2 µM.

In the case of `CCCN1CC[C@@]2(OC)OC(N)=C(C#N)[C@@H](c3ccc(Br)cc3)[C@@H]2C1`, the half-maximal inhibitory concentration (IC50) was determined as 19.4 µM.

Turning to `CCCN1CC[C@@]2(OC)OC(N)=C(C#N)[C@@H](c3ccc(Cl)cc3)[C@@H]2C1`, the IC50 turned out to be 30.3 µM.

`CO[C@@]12CCN(Cc3ccccc3)C[C@H]1[C@H](c1ccc(Cl)cc1)C(C#N)=C(N)O2`: the IC50 is 18.5 µM.

Regarding `CO[C@@]12CCN(C)C[C@H]1[C@H](c1ccc(Cl)cc1Cl)C(C#N)=C(N)O2`, the half-inhibitory concentration (IC50) was 14.9 µM.

Take `CCN1CC[C@@]2(OC)OC(N)=C(C#N)[C@@H](c3ccc(Cl)cc3Cl)[C@@H]2C1`: the IC50 is 27.1 µM.

Consider `CCCN1CC[C@@]2(OC)OC(N)=C(C#N)[C@@H](c3ccc(Cl)cc3Cl)[C@@H]2C1`, for which the IC50 turned out to be 35.5 µM.

`CO[C@@]12CCN(Cc3ccccc3)C[C@H]1[C@H](c1ccc(Cl)cc1Cl)C(C#N)=C(N)O2`: the IC50 was found to be 18.3 µM.

Consider `CCCN1CC[C@@]2(OC)OC(N)=C(C#N)[C@@H](c3ccc(F)cc3)[C@@H]2C1`, for which the half-maximal inhibitory concentration (IC50) was found to be 29.6 µM.

For the molecule `CO[C@@]12CCN(Cc3ccccc3)C[C@H]1[C@H](c1ccc(F)cc1)C(C#N)=C(N)O2`, the concentration for half-maximal inhibition (IC50) worked out at 17.2 µM.

With `CCN1CC[C@@]2(OC)OC(N)=C(C#N)[C@@H](c3ccc(C)cc3)[C@@H]2C1`, the IC50 turned out to be 16.8 µM.

On to `CCCN1CC[C@@]2(OC)OC(N)=C(C#N)[C@@H](c3ccc(C)cc3)[C@@H]2C1`, for which the IC50 was found to be 21 µM.

`CO[C@@]12CCN(Cc3ccccc3)C[C@H]1[C@H](c1ccc(C)cc1)C(C#N)=C(N)O2`: the concentration for half-maximal inhibition (IC50) was 27.1 µM.

Take `CCCN1CC[C@@]2(OC)OC(N)=C(C#N)[C@@H](c3ccc(OC)cc3)[C@@H]2C1`: the 50% inhibitory concentration (IC50) stood at 21.3 µM.

With `COc1ccc([C@@H]2C(C#N)=C(N)O[C@]3(OC)CCN(Cc4ccccc4)C[C@@H]23)cc1`, the IC50 came out at 23.1 µM.

As for `COc1ccc([C@@H]2C(C#N)=C(N)O[C@]3(OC)CCN(C)C[C@@H]23)cc1OC`, the half-maximal inhibitory concentration (IC50) was found to be 19.1 µM.

For the molecule `CCN1CC[C@@]2(OC)OC(N)=C(C#N)[C@@H](c3ccc(OC)c(OC)c3)[C@@H]2C1`, the half-inhibitory concentration (IC50) worked out at 23.2 µM.

As for `CCCN1CC[C@@]2(OC)OC(N)=C(C#N)[C@@H](c3ccc(OC)c(OC)c3)[C@@H]2C1`, the IC50 was 24.7 µM.

Consider `COc1ccc([C@@H]2C(C#N)=C(N)O[C@]3(OC)CCN(Cc4ccccc4)C[C@@H]23)cc1OC`, for which the 50% inhibitory concentration (IC50) came to 21.9 µM.

Consider `CO[C@@]12CCN(Cc3ccccc3)C[C@H]1[C@H](c1ccc(N3CCOCC3)cc1)C(C#N)=C(N)O2`, for which the half-maximal inhibitory concentration (IC50) turned out to be 25.4 µM.

Regarding `CO[C@@]12CCN(C)C[C@H]1[C@H](c1ccc(-c3cccs3)cc1)C(C#N)=C(N)O2`, the half-inhibitory concentration (IC50) came out at 13.8 µM.

For `CCN1CC[C@@]2(OC)OC(N)=C(C#N)[C@@H](c3ccc(-c4cccs4)cc3)[C@@H]2C1`, the IC50 turned out to be 19.8 µM.

Consider `Cn1c(=O)c2nc[nH]c2n(C)c1=O` [THEOPHYLLINE], for which the 50% inhibitory concentration (IC50) was found to be 19.9 µM.

One may read the IC50 as the concentration needed to halve the response being measured.
